Assay results reported in ChEMBL document CHEMBL1130544, “Catalysis of the Kemp elimination by antibodies elicited against a cationic hapten” (Bioorg Med Chem Lett, 1997).

How the values were obtained:
Assay type in all cases: ADME
[1] = Kinetic parameter for antibody-catalyzed Kemp elimination, at pH 7.1, 30C, using 5% acetonitrile and 4B2 as catalyst was expressed as KM
[2] = Rate constant with triethylamine at 30 degree C in 0.1 M potassium chloride was expressed as Kamine
[3] = Kinetic parameter for antibody-catalyzed Kemp elimination, at pH 7.1, 30C, using 0.25% acetonitrile and 4B2 as catalyst was expressed as Kcat/KM
[4] = Kinetic parameter for antibody-catalyzed Kemp elimination, at pH 7.1, 30C, using 5% acetonitrile and 4B2 as catalyst was expressed as Kcat/KM
[5] = Kinetic parameter for antibody-catalyzed Kemp elimination, at pH 7.1, 30C, using 1% acetonitrile and 4B2 as catalyst was expressed as Kcat
[6] = Kinetic parameter for antibody-catalyzed Kemp elimination, at pH 7.1, 30C, using 10% acetonitrile and 4B2 as catalyst was expressed as Kcat/KM
[7] = Kinetic parameter for antibody-catalyzed Kemp elimination, at pH 7.1, 30C, using 1% acetonitrile and 4B2 as catalyst was expressed as KM
[8] = Rate constant at 30 degree C in phosphate buffer pH 7.1, 0.5 % acetonitrile was expressed as Kcat/KM
[9] = Kinetic parameter for antibody-catalyzed Kemp elimination, at pH 7.1, 30C, using 5% acetonitrile and 4B2 as catalyst was expressed as Kcat/Kuncat
[10] = Kinetic parameter for antibody-catalyzed Kemp elimination, at pH 7.1, 30C, using 1% acetonitrile and 6C2 as catalyst was expressed as Kcat/KM
[11] = Kinetic parameter for antibody-catalyzed Kemp elimination, at pH 7.1, 30C, using 1% acetonitrile and 4B2 as catalyst was expressed as Kcat/Kuncat
[12] = Kinetic parameter for antibody-catalyzed Kemp elimination, at pH 7.1, 30C, using 5% acetonitrile and 4B2 as catalyst was expressed as Kcat
[13] = Rate constant ratio at 30 degree C in phosphate buffer pH 7.1, 0.5 % acetonitrile
[14] = Kinetic parameter for antibody-catalyzed Kemp elimination, at pH 7.1, 30C, using 1% acetonitrile and 4B2 as catalyst was expressed as Kcat/KM

## O=[N+]([O-])c1ccc2oncc2c1
[1]
  Km: 2100 µM
[2]
  K amine: 0.82 M⁻¹ s⁻¹
[3]
  k cat/Km: 53 M⁻¹ s⁻¹
[4]
  k cat/Km: 10.1 M⁻¹ s⁻¹
[5]
  k cat: 0.035 s⁻¹
[6]
  k cat/Km: 5.9 M⁻¹ s⁻¹
[7]
  Km: 1200 µM
[8]
  k cat/Km: 39 M⁻¹ s⁻¹
[9]
  k cat/Kuncat: 6300
[10]
  k cat/Km: 1.4 M⁻¹ s⁻¹
[11]
  k cat/Kuncat: 18000
[12]
  k cat: 0.022 s⁻¹
[13]
  Ratio: 48
[14]
  k cat/Km: 29.1 M⁻¹ s⁻¹

## O=[N+]([O-])c1ccc2cnoc2c1
[2]
  K amine: 0.16 M⁻¹ s⁻¹
[8]
  k cat/Km: 6 M⁻¹ s⁻¹
[13]
  Ratio: 38

## c1ccc2oncc2c1 [BENZO[D]ISOXAZOLE]
[2]
  K amine: 0.0185 M⁻¹ s⁻¹
[8]
  k cat/Km: 0.6 M⁻¹ s⁻¹
[13]
  Ratio: 32
